These results are taken from PMC11480954, “Molecular determinants of resurgent sodium currents mediated by Navβ4 peptide and A-type FHFs” (Frontiers in Molecular Neuroscience, 2024).

Several values for one entry are separate records, joined by “and”; a condition that tells them apart may be missing. Identical values can stand only once. Like-named read-outs stand apart in the source and are kept apart here. No end group written: not given here.

Assay [1] has as its system Nav1.7 N395K. Particulars: ref Sheets et al., 2007; cited from earlier work. An excerpt: The receptor site of local anesthetics is formed by multiple residues within DIS6, DIIIS6 and DIVS6. […] Several studies have implicated F1764 and Y1771 in Nav1.2 (corresponding to F1737 and Y1744 in Nav1.7) as playing a major effect on local anesthetics-induced inhibition of VGSCs ([Ragsdale et al., 1996]). We recently reported that mutation of an asp ...

Assay [2] deals with T1, human Nav1.7 R1599P (rpNav1.7) (Homo sapiens, UniProt Q15858, R1610P).
T1 construct: expressed in transfected cells; host or cells: HEK293 cells, transient transfection with pcDNA3.1 construct
T1 sequence (Q15858 1-1977 isoform Q15858-3 R1599P): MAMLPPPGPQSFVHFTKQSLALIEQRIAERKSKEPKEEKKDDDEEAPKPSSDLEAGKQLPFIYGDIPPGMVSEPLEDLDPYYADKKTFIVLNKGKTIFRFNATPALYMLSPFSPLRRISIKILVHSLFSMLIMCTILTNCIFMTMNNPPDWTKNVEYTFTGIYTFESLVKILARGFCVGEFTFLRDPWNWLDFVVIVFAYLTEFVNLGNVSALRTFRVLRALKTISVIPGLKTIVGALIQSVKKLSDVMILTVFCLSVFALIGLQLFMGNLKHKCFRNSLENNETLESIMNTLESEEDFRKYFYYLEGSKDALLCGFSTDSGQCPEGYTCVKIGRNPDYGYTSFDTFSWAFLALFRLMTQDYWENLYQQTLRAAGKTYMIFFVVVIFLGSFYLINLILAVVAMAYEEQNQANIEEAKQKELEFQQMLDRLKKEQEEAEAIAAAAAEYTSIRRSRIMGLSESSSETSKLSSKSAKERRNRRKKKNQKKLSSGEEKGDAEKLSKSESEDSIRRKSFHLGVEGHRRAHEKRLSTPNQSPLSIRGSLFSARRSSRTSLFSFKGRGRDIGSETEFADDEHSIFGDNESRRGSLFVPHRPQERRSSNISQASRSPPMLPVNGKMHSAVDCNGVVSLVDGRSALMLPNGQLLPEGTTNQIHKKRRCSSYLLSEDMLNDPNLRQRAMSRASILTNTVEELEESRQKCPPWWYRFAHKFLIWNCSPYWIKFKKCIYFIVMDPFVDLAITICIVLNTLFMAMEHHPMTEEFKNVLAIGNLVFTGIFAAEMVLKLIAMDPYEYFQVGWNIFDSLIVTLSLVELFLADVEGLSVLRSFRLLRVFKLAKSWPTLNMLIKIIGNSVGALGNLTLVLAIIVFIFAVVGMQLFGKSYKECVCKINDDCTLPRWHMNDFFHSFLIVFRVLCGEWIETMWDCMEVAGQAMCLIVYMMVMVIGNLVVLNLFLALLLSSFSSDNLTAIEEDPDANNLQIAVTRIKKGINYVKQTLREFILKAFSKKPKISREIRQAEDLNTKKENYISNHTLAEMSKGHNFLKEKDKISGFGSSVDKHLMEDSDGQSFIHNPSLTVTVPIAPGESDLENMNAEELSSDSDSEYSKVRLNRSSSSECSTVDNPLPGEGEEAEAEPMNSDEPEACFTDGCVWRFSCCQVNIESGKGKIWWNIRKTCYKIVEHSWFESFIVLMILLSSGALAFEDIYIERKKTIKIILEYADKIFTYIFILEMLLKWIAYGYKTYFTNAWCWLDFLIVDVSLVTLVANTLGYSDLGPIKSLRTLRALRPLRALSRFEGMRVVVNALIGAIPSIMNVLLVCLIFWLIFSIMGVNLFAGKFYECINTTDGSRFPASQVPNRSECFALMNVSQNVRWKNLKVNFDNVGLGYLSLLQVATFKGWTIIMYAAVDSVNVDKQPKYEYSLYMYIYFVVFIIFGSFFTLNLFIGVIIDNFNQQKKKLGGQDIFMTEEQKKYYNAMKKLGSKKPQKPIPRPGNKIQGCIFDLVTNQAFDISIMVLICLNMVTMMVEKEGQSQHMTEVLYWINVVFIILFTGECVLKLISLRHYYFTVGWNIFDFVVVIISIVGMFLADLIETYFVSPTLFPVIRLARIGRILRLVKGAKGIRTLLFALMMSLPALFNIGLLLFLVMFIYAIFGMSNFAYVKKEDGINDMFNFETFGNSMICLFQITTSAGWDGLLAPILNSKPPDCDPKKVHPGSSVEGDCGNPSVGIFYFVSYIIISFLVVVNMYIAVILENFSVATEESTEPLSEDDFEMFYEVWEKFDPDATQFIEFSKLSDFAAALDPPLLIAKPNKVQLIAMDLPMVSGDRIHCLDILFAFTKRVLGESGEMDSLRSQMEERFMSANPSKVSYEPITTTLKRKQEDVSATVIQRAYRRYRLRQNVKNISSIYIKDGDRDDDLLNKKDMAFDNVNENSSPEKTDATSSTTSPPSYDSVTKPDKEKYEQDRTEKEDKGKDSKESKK
T1 sequence (Q07699 19-218 partner): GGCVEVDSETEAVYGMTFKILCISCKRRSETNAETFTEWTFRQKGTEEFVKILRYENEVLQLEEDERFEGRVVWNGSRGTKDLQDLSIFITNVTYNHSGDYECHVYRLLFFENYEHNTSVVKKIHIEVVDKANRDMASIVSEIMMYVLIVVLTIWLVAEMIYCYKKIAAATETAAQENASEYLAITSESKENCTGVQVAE
T1 sequence (O60939 30-215 partner): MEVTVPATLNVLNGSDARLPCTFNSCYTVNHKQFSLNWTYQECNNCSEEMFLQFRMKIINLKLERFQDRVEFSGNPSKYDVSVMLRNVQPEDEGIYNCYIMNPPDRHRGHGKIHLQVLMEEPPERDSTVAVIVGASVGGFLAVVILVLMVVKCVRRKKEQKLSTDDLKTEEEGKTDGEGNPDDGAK
The assay can be described thus: Resurgent current (INaR), whole-cell patch clamp, rpNav1.7. In kind it is cell-based. As for the experimental part:
(§1) HEK293 cells and ND7/23 cells were grown under standard tissue culture conditions (5% CO2 and 37°C) in DMEM supplemented with 10% FBS, 1% penicillin and 1% streptomycin. Using Invitrogen Lipofectamine 2000, human Nav1.7 R1599P (rpNav1.7) and the mutant constructs were transiently co-transfected with Navβ1 and Navβ2 into HEK293 cells. The constructs human Nav1.8 and mutants were transiently co-transfected with FHF2B or FHF4A into ND7/23 cells. The lipofectamine-DNA mixture was added to the cell culture medium and left for 3 h after which the cells were washed with fresh medium. Cells with green fluorescent protein fluorescence were selected for whole-cell patch-clamp recordings 36–72 h after transfection.
(§2) Whole-cell voltage-clamp recordings were performed at room temperature (~21°C) using an EPC-10 amplifier and the Pulse program (HEKA Electronics). Fire-polished electrodes (0.7–1.0 MΩ) were fabricated from 1.7 mm capillary glass using a P-97 puller (Sutter Instruments), and the tips were coated with sticky wax (KerrLab) to reduce electrode capacitance and enable increased series resistance compensation. The pipette solution contained (in mM) 140 CsF, 1.1 EGTA, 10 NaCl, and 10 HEPES, pH 7.3. The bathing solution was (in mM) 130 mM NaCl, 30 mM TEA chloride, 1 mM MgCl2, 3 mM KCl, 1 mM CaCl2, 10 mM HEPES, and 10 mM d-glucose, pH 7.3 (adjusted with NaOH). […] The offset potential was zeroed before contacting the cell. After establishing the whole-cell recording configuration, the resting potential was held at −120 or −100 mV for 5 min to allow adequate equilibration between the micropipette solution and the cell interior. […]
(§3) INaR: INaR was elicited by repolarizing voltage steps from +20 to −80 mV for 100 ms (or 200 ms) in −5 mV increments, following a 20-ms depolarizing potential of +30 mV. […] The relative INaR in Nav1.7 and Nav1.8 was calculated by normalizing to the peak transient current elicited at −10 or 0 mV.

The subject of assay [3] is human Nav1.7. The assay can be described thus: Steady-state activation and inactivation, WT Nav1.7. In kind it is cell-based. Particulars: HEK293, 100 μM intracellular, mean ± S.E., scramble n = 6, Navβ4 peptide n = 8. As to the method: as §1
Whole-cell voltage-clamp recordings were performed at room temperature (~21°C) using an EPC-10 amplifier and the Pulse program (HEKA Electronics). […]
(§4) Families of sodium currents were induced by 50-ms depolarizing steps to various potentials ranging from −120 (or −100) to +40 mV in 5-mV increments. The conductance was calculated using the equation G(Nav) = I/(V - Vrev) in which I, V, and Vrev represent inward current value, membrane potential, and reversal potential, respectively. […]

The target of assay [4] is T1, human Nav1.7 R1599P (rpNav1.7). Briefly: Gating properties (steady-state activation, inactivation, INaP), rpNav1.7. The format is cell-based. As for the experimental part:
as §1, §2, §4

Assay [5] shares this target. The assay can be described thus: Long-term inactivation of rpNav1.7. The format is cell-based. Conditions: rpNav1.7, HEK293; 1 mM; six 16-ms pulses of −10 mV from −100 mV, 40-ms interpulse; scramble n = 6, FHF4A peptide n = 5; p < 0.0001.
The test system of assay [6] is human Nav1.8. Briefly: INaR, Nav1.8 co-expressed with FHF2B. The format is cell-based. Particulars: Nav1.8 + FHF2B, ND7/23, 1 mM. As to the method: as §1
(§5) Whole-cell voltage-clamp recordings were performed at room temperature (~21°C) using an EPC-10 amplifier and the Pulse program (HEKA Electronics). Fire-polished electrodes (0.7–1.0 MΩ) were fabricated from 1.7 mm capillary glass using a P-97 puller (Sutter Instruments), and the tips were coated with sticky wax (KerrLab) to reduce electrode capacitance and enable increased series resistance compensation. The pipette solution contained (in mM) 140 CsF, 1.1 EGTA, 10 NaCl, and 10 HEPES, pH 7.3. The bathing solution was (in mM) 130 mM NaCl, 30 mM TEA chloride, 1 mM MgCl2, 3 mM KCl, 1 mM CaCl2, 10 mM HEPES, and 10 mM d-glucose, pH 7.3 (adjusted with NaOH). […] The offset potential was zeroed before contacting the cell. After establishing the whole-cell recording configuration, the resting potential was held at −120 or −100 mV for 5 min to allow adequate equilibration between the micropipette solution and the cell interior. Linear leak subtraction, based on resistance estimates from four to five hyperpolarizing pulses applied before the depolarizing test potential, was used for all voltage clamp recordings. Membrane currents were usually filtered at 5 kHz and sampled at 20 kHz. […] Voltage errors were minimized using 80–95% series resistance compensation, and the capacitance artifact was canceled using the computer-controlled circuitry of the patch clamp amplifier. […] The concentration-dependent curves were fitted to a hill equation: Y = Bottom + (Top-Bottom)/(1 + 10^((LogEC50-X)*HillSlope)).
as §3

In assay [7] the test system is human Nav1.8. The assay can be described thus: Gating properties (steady-state activation, inactivation, INaP), Nav1.8. Particulars: Nav1.8 + FHF2B, ND7/23; 1 mM; held at −100 mV; scramble n = 8, FHF4A peptide n = 10; p > 0.05. In kind it is cell-based. As for the experimental part: as §1, §5
Families of sodium currents were induced by 50-ms depolarizing steps to various potentials ranging from −120 (or −100) to +40 mV in 5-mV increments. The conductance was calculated using the equation G(Nav) = I/(V - Vrev) in which I, V, and Vrev represent inward current value, membrane potential, and reversal potential, respectively.
Voltage dependence of steady-state inactivation was estimated using a standard double pulse protocol in which sodium currents were induced by a 50-ms depolarizing potential of 0 mV following a 500-ms prepulse at potentials that ranged from −150 to +10 mV with a 10-mV increment. Currents were plotted as a fraction of the maximum peak current. To obtain the midpoint voltages (V1/2) and slope factor (k), the curves of both steady-state activation and inactivation were fitted to a Boltzmann function.

For assay [8], the system named is Purkinje neurons. Particulars: ref White et al., 2019, cited from earlier work. An excerpt:
Next, we investigated if FHF4A, another INaR mediator reported recently ([White et al., 2019]; [Xiao et al., 2022]), shares the receptor site in VGSCs with Navβ4 peptide.

For assay [9], the system named is VGSC α-subunits. Particulars: heterologous co-expression with VGSC α-subunits; no reference given; cited from earlier work. An excerpt:
FHF4A could still induce INaR from the F1710K channel (Figure 10A), but the average INaR amplitude at −20 mV is only 2.0% ± 0.2% of the peak transient current, which is less than one-half of the value from WT Nav1.8 (p < 0.0001). ... || The role of Navβ4 in INaR generation remains controversial. […] [Bant and Raman (2010)] reported that siRNA induced knock-down of Navβ4 reduced INaR generation in cultured cerebellar granular neurons by roughly 60%. […] Furthermore, Scn4b knock-out in mice has produced variable effects on INaR. In striatal neurons, Scn4b kno ...

Regarding `CCN(CC)CC(=O)Nc1c(C)cccc1C` [lidocaine], the “effect of N395K on lidocaine inhibition of Nav1.7” value in assay [1] was “attenuates the inhibitory effects of lidocaine on Nav1.7”.
For “KAREAQRASRAIEQLRSAKI [scrambled peptide, scrambled control peptide]”, in assay [2] (Nav1.7 and rpNav1.7 (Figures 1A,B), HEK293, 100 μM intracellular), the “INaR elicited with scrambled peptide” value was “no INaR was elicited”. For the same molecule, the “V1/2(activation), WT Nav1.7” value in assay [3] (p < 0.01) is −29.3 ± 1.6 mV. Further, the “V1/2(inactivation), WT Nav1.7” value in assay [3] (p < 0.05) is −79.7 ± 1.7 mV. Further, the “Inactivation (V1/2), rpNav1.7” value in assay [4] (HEK293, 100 μM intracellular, mean ± S.E., scramble n = 5, Navβ4 peptide n = 9, p < 0.05) is −75.0 ± 1.5 mV. The “Activation (V1/2), rpNav1.7” value in assay [4] (HEK293, 100 μM intracellular, mean ± S.E., scramble n = 6, Navβ4 peptide n = 9, p < 0.01) is −27.0 ± 1.9 mV. The “fraction of the current elicited at the 6th pulse” value in assay [5] turned out to be 0.87 ± 0.08. The “INaR with scrambled peptide, Nav1.8” value in assay [6] was “failed to produce INaR”. Further, in assay [7], the “V1/2 (activation), Nav1.8, Figure 6” value is −10.0 ± 2.4 mV and the “V1/2 (inactivation), Nav1.8, Figure 6” value is reported as −44.5 ± 2.1 mV.
Regarding KKLITFILKKTREK [Navβ4 peptide], in assay [2] (rpNav1.7 + Navβ1 + Navβ2, HEK293, 100 μM peptide intracellular, measured after 3.0 ms into repolarization, ~21°C, mean ± S.E., n = 14), the “average INaR amplitude elicited at −30 mV” value is on record as 15.7% ± 1.1%. Besides, the EC50 in assay [2] (rpNav1.7, HEK293, Hill equation, peptide in intracellular solution (10 μM – 1 mM), each data point from 3 to 14 cells, read-out: EC50 for INaR generation) stood at 61.8 ± 1.3 µM. Moreover, the “INaP, rpNav1.7” value in assay [4] (end of 50-ms pulse of −10 mV, normalized to peak transient current, 100 μM Navβ4 peptide, n = 9) is 7.1% ± 3.0% and 7.1 ± 3.0 (9) %.
For “peptide derived from the sequence FHF4A K50 – R63: a peptide derived from the sequence FHF4A K50 – R63 (KVRIFGLKKRRLRR; FHF4A; UniProt Q92915 50-63, looked up, fragment)”, the “INaR in Purkinje neurons” value in assay [8] is “INaR was also reconstituted in Purkinje neurons”; in [8] (listed as short peptide derived from this segment), “induce robust Nav1.6 INaR in Purkinje neurons”.
On to “substitution of the 7^th residue leucine with serine: FHF4A K50 – R63 peptide with substitution of the 7th residue leucine with serine (KVRIFGSKKRRLRR; FHF4A peptide K50-R63; UniProt Q92915 50-63, looked up, variant L56S)”, for which the “INaR in Purkinje neurons” value in [8] is “no longer induce INaR”.

B1: full-length Navβ4: full-length Navβ4 sodium channel auxiliary subunit (protein, UniProt Q8IWT1 1-228, looked up)
chain: MPGAGDGGKAPARWLGTGLLGLFLLPVTLSLEVSVGKATDIYAVNGTEILLPCTFSSCFGFEDLHFRWTYNSSDAFKILIEGTVKNEKSDPKVTLKDDDRITLVGSTKEKMNNISIVLRDLEFSDTGKYTCHVKNPKENNLQHHATIFLQVVDRLEEVDNTVTLIILAVVGGVIGLLILILLIKKLIIFILKKTREKKKECLVSSSGNDNTENGLPGSKAEEKPPSKV
modifications: full-length
notes: full-length Navβ4 sodium channel auxiliary subunit
In the case of B1, the “INaR with full-length Navβ4” value in [9] was “fails to reconstitute INaR in heterologous systems”.
